Results published in patent publication US20070054262A1, “Methods of identifying optimal variants of peptide epitopes” (priority 2003, published 2007).
Where two headings read alike, the source gives them in different places.

Tests used:
Gag 271 variants = assay: Gag 271 variant immunogenicity tested using HLA-A2 transgenic mice; format: in vivo; conditions: 167 HIV variants
From the text: This particular group of 21 epitopes was selected based on their identity conservation in Clade B HIV sequences, with conservation across HIV clades as a secondary consideration. Because of this criteria, the form of epitope chosen as the parent peptide was not the most common variant (e.g. Gag 386, Gag 271, Pol 98). In some cases (e.g., see Gag 386 data), the “parent” epitope and the most common variant were recognized to the same extent. However, in some cases the selection of epitope to include as the “parent” epitope was predicted to make a difference in the immunological conservation. An example of this was the Gag 271 epitope (FIG. 4). The variant most commonly seen in clade B sequences was the […] form, while the most common form of the epitope was […]. Not all amino acids are considered equal to each other in their ability to substitute (Tangri). For example, asparagine (N) is considered a conservative substitution for serine (S), while the opposite substitution in only considered semi-conserved. When the program calculated immunological conservation using the […] peptide as the parent peptide, only two variants were predicted to be immunogenic. […] This prediction was tested using HLA-A2 transgenic mice. […] This has important implications in epitope selection for vaccine development, and epitope performance can be predicted.

[1] = system: Env 134-specific T cell line; assay: Env 134-specific T cell line (stimulated five times with the immunizing peptide): recognition and titration of variant peptides; format: cell-based, mouse; conditions: Env 134 line; for Affinity reduced from the parent peptide: peptide titration; for Peptide concentration at which any IFN-γ secretion was detected: highest peptide concentration examined; for Enrichment of CTL able to recognize the peptide: one versus five stimulations
[2] = system: Gag 386-specific T cell line; assay: Gag 386-specific T cell line (stimulated five times with the immunizing peptide): recognition and titration of variant peptides; format: cell-based, mouse; conditions: Gag 386 line; for Peptide affinity (titration against CTL stimulated 5 times with the parent peptide): IFN-γ
From the text: Recognition after multiple restimulations The observed recognition of variant peptides by CTL raised against the parent peptide might be due to either promiscuous recognition at the level of a single TCR or simply a mixture of TCRs against the immunizing peptide which are each able to recognize subtly different peptides. To distinguish between these two possibilities, Env 134- or Gag 386-specific T cell lines were generated by stimulating five times with the immunizing peptide, and then tested for recognition of a partial panel of variant peptides. These T cell lines were also characterized for Vβ TCR usage against a panel of antibodies predicted to react with the TCR of the mouse strains utilized for these experiments.
Because the SU is a measure of the number of cells needed to secrete a defined amount of IFN-γ, a higher SU value would correspond to an enrichment of IFN-γ, producing cells.
Both lines were also characterized with regard to the affinity of certain of the variant peptides by titrating the variant peptides examined above (Table 5A and 5B).

normal human T cells = format: cell-based
[3] = system: patients with recurrent or residual cervical carcinoma; conditions: co-emulsified with HPV-derived CTL epitopes, cited from earlier work
[4] = system: CTL primed against the parent peptide; assay: Recognition of variant peptides by CTL from DNA-immunized HLA-A11/K^b transgenic mice (IFN-γ secretion after restimulation of splenocytes); format: cell-based; conditions: parent Pol 98
From the text: Variants corresponding to five HLA-A2 and -A3 restricted epitopes from 167 HIV varianst were identified and synthesized. These represented all the complete sequences in the Los Alamos database at the time (116 strains), as well as 51 complete clade C sequences from Botswana, and included 22 subtype B and 62 subtype C sequences. These peptides were then characterized with regard to MHC binding, variant distribution, and immunogenicity. To measure immunogenicity, HLA-A2/K^b or HLA-A11/K^b transgenic mice were immunized with the epitopes encoded in a DNA based format ( ). Eleven days after immunization, splenocytes were restimulated with either the epitope corresponding to the epitope encoded by the DNA (parent) or each of the variant peptides. After 6 days in culture, IFN-γ secretion was measured in response to the peptide used to stimulate each culture.

HLA-DR molecules = conditions: cited from earlier work

## MTNNPPIPV
Gag 271 variants
  Variants that would be recognized if this form of the peptide was utilized in vaccines: 39 of 167 variants

## KITPLCVTL [Env 134 variant]
[1]
  Affinity reduced from the parent peptide: approximately 10 fold

## ELTPLCVTL [Env 134 variant]
[1]
  Activity as measured by SU after five restimulations: lowest activity
  Peptide concentration at which any IFN-γ secretion was detected: 1 µg/mL
  Enrichment of CTL able to recognize the peptide: little or no enrichment

## MTSNPPIPV
Gag 271 variants
  Variants that would be recognized if this form of the peptide was utilized in vaccines: approximately 152 of 167 variants

## KLTPFCVTL [Env 134 variant]
[1]
  Activity as measured by SU after five restimulations: lowest activity
  Peptide concentration at which any IFN-γ secretion was detected: 1 µg/mL
  Enrichment of CTL able to recognize the peptide: little or no enrichment

## VLAEAMSQV [Gag 386]
[2]
  Peptide affinity (titration against CTL stimulated 5 times with the parent peptide): highest affinity

## KLTPLCVPL [Env 134 variant]
[1]
  Activity as measured by SU after five restimulations: lowest activity
  Peptide concentration at which any IFN-γ secretion was detected: 1 µg/mL
  Enrichment of CTL able to recognize the peptide: little or no enrichment

## aKXVAAWTLKAAa-NH2 [PADRE®]
Normal human T cells
  Potency relative to TT 830-843 antigen for activation of T cell responses, on a molar basis: about 100 fold
Normal human T cells; three normal donors tested
  Donors with primary T cell responses: three
[3]
  Safety: favorable safety profile
[3]; immunocompromised patients
  Patients in whom PADRE T cell reactivity was detected: four

## KLTPLCVIL [Env 134 variant]
[1]
  Activity as measured by SU after five restimulations: lowest activity
  Peptide concentration at which any IFN-γ secretion was detected: 1 µg/mL
  Enrichment of CTL able to recognize the peptide: little or no enrichment

## QITPLCVTL [Env 134 variant]
[1]
  Activity as measured by SU after five restimulations: lowest activity
  Peptide concentration at which any IFN-γ secretion was detected: 1 µg/mL
  Enrichment of CTL able to recognize the peptide: little or no enrichment

## QLTPLCVTL [Env 134 variant]
[1]
  Affinity reduced from the parent peptide: ~100 fold

## VSIKVGGQIK
[4]
  Recognition relative to the parent peptide: ≤ 10 fold

## ILAEAMSKA [Gag 386 variant]
[2]
  Recognition of variant peptides (SU, IFN-γ), one versus five peptide stimulations: never recognized
  Peptide affinity (titration against CTL stimulated 5 times with the parent peptide): not recognized

## VLAEAMSQI [Gag 386 single anchor variant]
[2]
  Peptide affinity (titration against CTL stimulated 5 times with the parent peptide): highest affinity

## QYIKANSKFIGITE [TT 830-843]
Normal human T cells
  Antigen concentration at which the 10,000 cpm proliferation level was reached: about 10,000 ng/ml
  Donors with primary T cell responses: 2
HLA-DR molecules
  DR molecules bound: seven
